In BigSolDB 2.1:

NC(=O)c1ccc(N)cc1
solubility (mole fraction)
Details | 283.15 K | 288.15 K | 293.15 K | 298.15 K | 303.15 K | 308.15 K | 313.15 K | 318.15 K | 323.15 K
in acetone | 0.00745 | 0.00795 | 0.0086 | 0.00956 | 0.0105 | 0.0118 | 0.0137 | 0.0154 | 0.0176
in acetonitrile | 0.00193 | 0.00204 | 0.00225 | 0.00251 | 0.00298 | 0.0036 | 0.00447 | 0.00546 | 0.00661
in ethanol | 0.00621 | 0.00649 | 0.00697 | 0.00777 | 0.00883 | 0.0104 | 0.0121 | 0.0141 | 0.016
in ethyl acetate | 0.000539 | 0.000606 | 0.000697 | 0.000845 | 0.00103 | 0.00131 | 0.00166 | 0.00207 | 0.00257
in isobutanol | 0.00239 | 0.00249 | 0.00263 | 0.0028 | 0.00309 | 0.00342 | 0.00384 | 0.00422 | 0.00467
in isopropanol | 0.00331 | 0.00354 | 0.00393 | 0.00431 | 0.00487 | 0.00577 | 0.00677 | 0.00819 | 0.00965
in methanol | 0.0121 | 0.0132 | 0.0145 | 0.0163 | 0.0188 | 0.0214 | 0.0246 | 0.0287 | 0.0328
in methyl acetate | 0.00147 | 0.00154 | 0.0017 | 0.00194 | 0.00217 | 0.00247 | 0.00274 | 0.00311 | 0.00347
in n-butanol | 0.00257 | 0.00274 | 0.00292 | 0.00313 | 0.00345 | 0.00375 | 0.00421 | 0.00468 | 0.00514
in n-butyl acetate | 0.000749 | 0.000819 | 0.000974 | 0.00121 | 0.00152 | 0.00186 | 0.00229 | 0.00275 | 0.00331
in n-propanol | 0.00401 | 0.00411 | 0.0044 | 0.00496 | 0.00585 | 0.00711 | 0.00839 | 0.01 | 0.0117
in water | 0.000858 | 0.000983 | 0.00118 | 0.00146 | 0.00184 | 0.00229 | 0.00281 | 0.00364 | 0.00449
